These results are taken from ChEMBL document CHEMBL3808309, “Interpreting the behavior of concentration-response curves of hyaluronidase inhibitors under DMSO-perturbed assay conditions” (Bioorg Med Chem Lett, 2016).

The nature of test [1]: Inhibition of bovine testis hyaluronidase using hyaluronic acid as substrate preincubated for 20 mins followed by incubation with CaCl2 for 20 mins and substrate for 10 mins by colorimetric Morgan-Elson method. Also on record: species or system Bos taurus.
Test [2] is described as follows: Inhibition of bovine testis hyaluronidase using hyaluronic acid as substrate preincubated with CaCl2 for 20 mins followed by incubation with compound for 20 mins and substrate for 10 mins by colorimetric Morgan-Elson method. Also on record: species or system Bos taurus.
Test [3] can be described thus: Inhibition of bovine testis hyaluronidase using hyaluronic acid as substrate preincubated with CaCl2 for 20 mins followed by incubation with of compound for 20 mins and substrate for 10 mins by colorimetric Morgan-Elson method in presence of 0.05% triton X-100. Also noted: species or system Bos taurus.
Test [4] in a line: Inhibition of bovine testis hyaluronidase using hyaluronic acid as substrate preincubated with CaCl2 for 20 mins followed by incubation with compound for 20 mins and substrate for 10 mins by colorimetric Morgan-Elson method in presence of BSA. Also noted: species or system Bos taurus.
The species named for test [5] is Bos taurus. Description: Inhibition of bovine testis hyaluronidase preincubated with CaCl2 for 20 mins followed by incubation with compound for 20 mins and substrate for 10 mins by colorimetric Morgan-Elson method in presence of up to 21% DMSO.
Test [6] can be described thus: Inhibition of bovine testis hyaluronidase preincubated with CaCl2 for 20 mins followed by incubation with compound for 20 mins and substrate for 10 mins by colorimetric Morgan-Elson method in presence of urea. Also on record: species or system Bos taurus.
The species named for test [7] is Bos taurus. Description: Ratio of IC50 for inhibition of bovine testis hyaluronidase preincubated with CaCl2 for 20 mins followed by addition of compound to IC50 for inhibition of bovine testis hyaluronidase preincubated for 20 mins followed by addition of CaCl2.
The species entered for test [8] is Bos taurus. Description: Inhibition of bovine testis hyaluronidase using hyaluronic acid as substrate at 3000 uM preincubated with CaCl2 for 20 mins followed by incubation with compound for 20 mins and substrate for 10 mins by colorimetric Morgan-Elson method in presence of 0.05% triton X-100.

Calls of active or inactive are those of the source. No cut-off for these calls is given here. Where only a bound is given, the exact number is not on record here.

For orientation: IC50 means the midpoint of a concentration-inhibition curve. By inhibition is commonly meant the share of the control response that was lost under treatment.

In the case of `CCCCCCCCCCCCCCCC(=O)OC[C@H](O)C1OC(=O)C(O)=C1O` (some centres not stated), the 50% inhibitory concentration (IC50) in test [1] turned out to be 23 µM; in test [2], 47 µM; in test [3], 480 µM; in test [4] it was 240 µM. Moreover, the inhibition entry in test [5] is “Active”.
For `O=C(O)[C@H]1O[C@@H](Oc2cc3oc(-c4ccccc4)cc(=O)c3c(O)c2O)[C@H](O)[C@@H](O)[C@@H]1O` [BAICALIN], the IC50 stood at 450 µM in test [1], 1400 µM in test [2], 1000 µM in test [3] and 1600 µM in test [4]. Besides, the inhibition entry in test [5] was “inactive”.
In the case of `O=C(O)c1cc(=O)c2c(OCC(O)COc3cccc4oc(C(=O)O)cc(=O)c34)cccc2o1` [CROMOLYN SODIUM], the IC50 in test [1] stood at 330 µM; in test [2], 1700 µM; in test [3], 1700 µM; in test [4], 1600 µM; in test [6], 1600 µM. For the same molecule, the inhibition result in test [5] was “inactive”.
Consider `CC1(C)[C@@H](O[C@H]2O[C@H](C(=O)O)[C@@H](O)[C@H](O)[C@H]2O[C@@H]2O[C@H](C(=O)O)[C@@H](O)[C@H](O)[C@H]2O)CC[C@]2(C)[C@H]3C(=O)C=C4[C@@H]5C[C@@](C)(C(=O)O)CC[C@]5(C)CC[C@@]4(C)[C@]3(C)CC[C@@H]12` [GLYCYRRHIZIN], for which the IC50 in test [1] amounted to 8.5 µM; in test [2] it was 29 µM; in test [3] it was 40 µM; in test [4] it was 61 µM; in test [6] it was 31 µM. In addition, the inhibition entry in test [5] was “inactive”. For the same molecule, in test [7], the Ratio IC50 was more than 3.
As for `COc1ccc2c(c1)c(CC(=O)O)c(C)n2C(=O)c1ccc(Cl)cc1` [INDOMETHACIN], the IC50 worked out at 340 µM in test [1], 1400 µM in test [2] and 2000 µM in test [4]. In test [8], the inhibition was less than 50%.
